Measured values from patent US6492302B1, “Compositions for the protection of plants against the stress of oxidation” (priority 1998, dated 2002).

Test: antioxidant properties of lipo-amino acids

With butyryl-cystine the antioxidant properties was “does not possess these properties”.
